This is an account of results in ChEMBL document CHEMBL4392832, “Surveying heterocycles as amide bioisosteres within a series of mGlu7 NAMs: Discovery of VU6019278” (Bioorg Med Chem Lett, 2019).

Some results are limits rather than exact numbers.

The target in series [1] is Metabotropic glutamate receptor 7 (Rattus norvegicus, UniProt P35400). The series can be described thus: Negative allosteric modulation of rat mGlu7 receptor expressed in HEK cells co-expressing Galpha15 assessed as reduction in calcium mobilization incubated for 142 secs prior to glutamate addition for 120 secs followed by L-AP4 addition and measured after 40 secs by Fluo-4 AM dye based fluorescence assay. The series is classed as functional, cell-based.

The target in series [2] is Metabotropic glutamate receptor 7 (Rattus norvegicus) (UniProt P35400). Put plainly: Negative allosteric modulation of rat mGlu7 receptor expressed in HEK cells co-expressing Galpha15 assessed as minimum L-AP4 response by measuring reduction in calcium mobilization incubated for 142 secs prior to glutamate addition for 120 secs followed by L-AP4 addition and measured after 40 secs by Fluo-4 AM dye based fluorescence assay relative to L-AP4 alone. On the set-up: scale not given: the % may be the effect or the level left. The format is functional, cell-based.

A short description of series [3]: Protein binding in rat plasma assessed as unbound fraction at 5 uM measured after 4 hrs by LC-MS/MS analysis. The series is classed as ADME, cell-free.
The nature of series [4]: Brain to plasma permeability coefficient, Kp of compound in rat. The format is ADME, cell-free.
Series [5] is described as follows: Unbound brain to plasma concentration ratio in rat. Conditions: read-out: K(p,uu,brain); call rule not given here. The format is ADME, cell-free.
Series [6] is described as follows: Free drug level in Sprague-Dawley rat brain at 0.2 mg/kg, iv via cassette dosing measured after 0.25 hrs by LC-MS/MS analysis. The series is classed as ADME, organism-based. Conditions: in vivo.
The target in series [7] is Metabotropic glutamate receptor 3 (Homo sapiens, UniProt Q14832). The series can be described thus: Negative allosteric modulation of mGlu3 receptor (unknown origin).
For series [8], the target named is Metabotropic glutamate receptor 6 (Homo sapiens, UniProt O15303). The series can be described thus: Negative allosteric modulation of mGlu6 receptor (unknown origin).
Series [9] addresses Metabotropic glutamate receptor 1 (Homo sapiens, UniProt Q13255). Put plainly: Negative allosteric modulation of mGlu1 receptor (unknown origin).
The nature of series [10]: Protein binding in rat brain assessed as unbound fraction at 5 uM measured after 6 hrs by LC-MS/MS analysis. The format is ADME, tissue-based.
Series [11] addresses Metabotropic glutamate receptor 2 (Homo sapiens, UniProt Q14416). The series can be described thus: Negative allosteric modulation of mGlu2 receptor (unknown origin).
A short description of series [12]: Total drug level in Sprague-Dawley rat brain at 0.2 mg/kg, iv via cassette dosing measured after 0.25 hrs by LC-MS/MS analysis. Conditions: read-out: Drug uptake. The series is classed as ADME, organism-based.
The target of series [13] is Metabotropic glutamate receptor 4 (Homo sapiens, UniProt Q14833). Put plainly: Negative allosteric modulation of mGlu4 receptor (unknown origin).
Series [14] addresses Metabotropic glutamate receptor 5 (Homo sapiens, UniProt P41594). Put plainly: Negative allosteric modulation of mGlu5 receptor (unknown origin).
Series [15] deals with Metabotropic glutamate receptor 8 (Homo sapiens, UniProt O00222). Put plainly: Negative allosteric modulation of mGlu8 receptor (unknown origin).
Chain of Metabotropic glutamate receptor 8 (O00222 whole entry): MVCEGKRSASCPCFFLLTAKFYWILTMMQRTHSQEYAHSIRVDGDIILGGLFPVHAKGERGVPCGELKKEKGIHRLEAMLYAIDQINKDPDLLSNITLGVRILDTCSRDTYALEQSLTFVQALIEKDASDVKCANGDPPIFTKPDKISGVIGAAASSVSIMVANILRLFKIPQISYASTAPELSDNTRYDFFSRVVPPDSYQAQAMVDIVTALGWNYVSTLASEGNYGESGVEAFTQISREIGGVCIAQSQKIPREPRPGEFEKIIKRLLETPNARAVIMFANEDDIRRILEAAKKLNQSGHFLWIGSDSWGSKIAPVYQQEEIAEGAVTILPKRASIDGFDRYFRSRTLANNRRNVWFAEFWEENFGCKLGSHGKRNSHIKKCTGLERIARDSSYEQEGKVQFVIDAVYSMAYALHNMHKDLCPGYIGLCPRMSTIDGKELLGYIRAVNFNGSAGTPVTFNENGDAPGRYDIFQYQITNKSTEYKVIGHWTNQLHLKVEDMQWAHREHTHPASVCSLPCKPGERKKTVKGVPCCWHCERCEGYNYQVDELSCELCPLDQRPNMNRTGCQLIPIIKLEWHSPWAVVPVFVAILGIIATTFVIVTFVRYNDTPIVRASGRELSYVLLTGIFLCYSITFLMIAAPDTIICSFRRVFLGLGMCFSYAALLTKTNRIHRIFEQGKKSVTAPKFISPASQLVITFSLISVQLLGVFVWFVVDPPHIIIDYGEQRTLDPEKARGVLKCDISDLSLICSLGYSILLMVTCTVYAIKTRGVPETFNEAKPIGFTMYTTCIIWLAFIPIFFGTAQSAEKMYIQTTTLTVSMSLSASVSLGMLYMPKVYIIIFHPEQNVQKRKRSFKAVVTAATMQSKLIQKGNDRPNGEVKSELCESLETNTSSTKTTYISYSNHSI

Chain of Metabotropic glutamate receptor 7 (P35400 whole entry): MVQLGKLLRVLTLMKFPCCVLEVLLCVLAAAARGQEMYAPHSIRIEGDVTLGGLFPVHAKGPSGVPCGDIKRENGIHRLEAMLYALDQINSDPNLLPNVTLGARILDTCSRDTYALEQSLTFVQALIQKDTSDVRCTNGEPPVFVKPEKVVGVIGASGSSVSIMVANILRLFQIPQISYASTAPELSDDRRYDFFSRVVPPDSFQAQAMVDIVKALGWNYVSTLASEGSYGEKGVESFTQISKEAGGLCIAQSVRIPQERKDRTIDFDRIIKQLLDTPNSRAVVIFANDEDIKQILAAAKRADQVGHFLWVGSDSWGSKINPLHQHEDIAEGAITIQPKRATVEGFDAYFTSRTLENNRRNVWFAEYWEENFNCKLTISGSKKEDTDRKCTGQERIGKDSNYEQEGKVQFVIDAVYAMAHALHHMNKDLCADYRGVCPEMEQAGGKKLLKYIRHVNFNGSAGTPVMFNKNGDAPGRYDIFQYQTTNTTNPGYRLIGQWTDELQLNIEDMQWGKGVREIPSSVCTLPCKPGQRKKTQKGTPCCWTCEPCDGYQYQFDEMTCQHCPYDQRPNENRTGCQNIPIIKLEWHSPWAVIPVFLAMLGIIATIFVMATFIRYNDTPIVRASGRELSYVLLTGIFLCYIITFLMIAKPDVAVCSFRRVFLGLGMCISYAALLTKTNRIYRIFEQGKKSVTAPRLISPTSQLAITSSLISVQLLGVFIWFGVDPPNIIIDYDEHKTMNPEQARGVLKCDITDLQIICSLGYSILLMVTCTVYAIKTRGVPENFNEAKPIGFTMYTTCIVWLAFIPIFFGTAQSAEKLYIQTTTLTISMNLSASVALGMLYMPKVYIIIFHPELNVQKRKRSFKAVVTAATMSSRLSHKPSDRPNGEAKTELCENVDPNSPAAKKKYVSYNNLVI
Chain of Metabotropic glutamate receptor 7 (Rattus norvegicus) (P35400 whole entry): as above
Chain of Metabotropic glutamate receptor 4 (Q14833 whole entry): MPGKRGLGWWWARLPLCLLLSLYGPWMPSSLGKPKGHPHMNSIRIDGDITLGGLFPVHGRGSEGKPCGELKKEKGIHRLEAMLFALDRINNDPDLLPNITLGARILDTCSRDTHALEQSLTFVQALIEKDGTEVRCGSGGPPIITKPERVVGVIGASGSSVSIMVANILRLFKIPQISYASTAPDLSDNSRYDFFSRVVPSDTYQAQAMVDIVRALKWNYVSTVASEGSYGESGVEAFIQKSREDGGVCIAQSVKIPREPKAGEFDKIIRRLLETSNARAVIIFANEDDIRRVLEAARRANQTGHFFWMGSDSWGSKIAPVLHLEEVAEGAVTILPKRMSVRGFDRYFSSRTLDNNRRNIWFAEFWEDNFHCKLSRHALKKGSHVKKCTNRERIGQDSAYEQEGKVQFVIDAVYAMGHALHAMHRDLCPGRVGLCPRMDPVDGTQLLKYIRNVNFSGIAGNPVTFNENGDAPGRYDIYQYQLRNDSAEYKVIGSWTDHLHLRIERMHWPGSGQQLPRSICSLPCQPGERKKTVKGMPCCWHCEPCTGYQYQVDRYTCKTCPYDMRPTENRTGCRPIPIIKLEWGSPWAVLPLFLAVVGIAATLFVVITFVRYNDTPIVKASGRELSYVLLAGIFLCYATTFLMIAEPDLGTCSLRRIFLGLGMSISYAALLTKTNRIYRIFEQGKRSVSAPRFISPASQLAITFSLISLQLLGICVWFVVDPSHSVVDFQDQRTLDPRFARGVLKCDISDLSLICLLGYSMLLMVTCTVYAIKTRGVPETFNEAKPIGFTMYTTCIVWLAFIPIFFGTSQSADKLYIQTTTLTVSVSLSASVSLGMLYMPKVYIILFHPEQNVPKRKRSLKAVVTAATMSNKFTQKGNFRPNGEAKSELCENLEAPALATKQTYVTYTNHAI
Chain of Metabotropic glutamate receptor 6 (O15303 whole entry): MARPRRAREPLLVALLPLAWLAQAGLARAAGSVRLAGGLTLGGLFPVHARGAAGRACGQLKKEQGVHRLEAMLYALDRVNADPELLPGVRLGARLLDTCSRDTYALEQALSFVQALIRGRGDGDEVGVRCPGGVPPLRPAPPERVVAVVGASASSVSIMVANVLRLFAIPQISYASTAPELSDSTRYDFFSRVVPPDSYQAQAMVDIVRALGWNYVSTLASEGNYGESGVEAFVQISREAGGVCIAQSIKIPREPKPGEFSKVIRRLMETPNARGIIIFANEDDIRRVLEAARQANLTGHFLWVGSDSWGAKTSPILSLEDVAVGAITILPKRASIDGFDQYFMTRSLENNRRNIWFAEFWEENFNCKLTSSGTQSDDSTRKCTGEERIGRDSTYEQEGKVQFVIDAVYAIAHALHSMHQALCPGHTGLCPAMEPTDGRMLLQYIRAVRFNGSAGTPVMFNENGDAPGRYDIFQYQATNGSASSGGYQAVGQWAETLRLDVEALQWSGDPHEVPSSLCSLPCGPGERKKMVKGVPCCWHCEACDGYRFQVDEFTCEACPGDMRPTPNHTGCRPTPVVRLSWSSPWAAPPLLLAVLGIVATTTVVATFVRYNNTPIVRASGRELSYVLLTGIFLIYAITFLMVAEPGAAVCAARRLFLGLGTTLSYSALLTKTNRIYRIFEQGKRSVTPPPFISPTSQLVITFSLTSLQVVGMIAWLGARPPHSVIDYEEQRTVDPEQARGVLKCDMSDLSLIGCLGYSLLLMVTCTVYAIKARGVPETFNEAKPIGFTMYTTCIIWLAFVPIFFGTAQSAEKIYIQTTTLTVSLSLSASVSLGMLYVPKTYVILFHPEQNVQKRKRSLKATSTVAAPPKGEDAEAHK
Chain of Metabotropic glutamate receptor 1 (Q13255 whole entry): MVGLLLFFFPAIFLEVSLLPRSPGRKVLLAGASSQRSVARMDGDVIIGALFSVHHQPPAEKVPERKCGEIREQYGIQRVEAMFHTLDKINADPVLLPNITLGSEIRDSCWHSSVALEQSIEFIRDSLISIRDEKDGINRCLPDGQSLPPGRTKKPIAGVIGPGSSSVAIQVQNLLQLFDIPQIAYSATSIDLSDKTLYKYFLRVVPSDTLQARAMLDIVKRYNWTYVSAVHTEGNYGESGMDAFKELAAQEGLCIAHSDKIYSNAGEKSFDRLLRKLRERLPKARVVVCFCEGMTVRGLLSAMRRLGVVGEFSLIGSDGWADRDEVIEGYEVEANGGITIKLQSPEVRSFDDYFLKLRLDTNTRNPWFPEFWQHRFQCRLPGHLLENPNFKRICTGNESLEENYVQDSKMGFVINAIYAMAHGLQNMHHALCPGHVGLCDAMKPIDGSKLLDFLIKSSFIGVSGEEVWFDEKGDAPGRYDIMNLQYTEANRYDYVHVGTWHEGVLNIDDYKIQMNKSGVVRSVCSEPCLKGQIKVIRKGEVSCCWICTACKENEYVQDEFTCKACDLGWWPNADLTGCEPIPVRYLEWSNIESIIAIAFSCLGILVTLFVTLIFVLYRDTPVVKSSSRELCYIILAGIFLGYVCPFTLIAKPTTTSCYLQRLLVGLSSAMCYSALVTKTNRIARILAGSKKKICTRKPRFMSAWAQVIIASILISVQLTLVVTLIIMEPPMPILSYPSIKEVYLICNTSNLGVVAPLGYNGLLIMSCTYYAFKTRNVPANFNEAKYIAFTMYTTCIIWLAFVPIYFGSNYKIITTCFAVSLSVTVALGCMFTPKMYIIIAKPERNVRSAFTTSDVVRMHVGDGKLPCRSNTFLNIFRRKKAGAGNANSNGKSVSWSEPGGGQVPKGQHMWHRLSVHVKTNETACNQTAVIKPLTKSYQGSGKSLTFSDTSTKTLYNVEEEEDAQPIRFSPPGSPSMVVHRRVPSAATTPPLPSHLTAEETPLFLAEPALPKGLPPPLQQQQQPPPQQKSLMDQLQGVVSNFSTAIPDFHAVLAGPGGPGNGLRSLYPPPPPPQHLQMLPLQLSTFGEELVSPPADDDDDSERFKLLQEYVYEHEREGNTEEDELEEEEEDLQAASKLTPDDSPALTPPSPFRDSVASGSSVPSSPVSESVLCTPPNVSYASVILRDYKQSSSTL

For orientation: IC50 means the midpoint of a concentration-inhibition curve. `COc1ccc(-c2nnc(-c3cc(OC(F)(F)F)ccc3-c3cscn3)o2)cc1OC`: the IC50 in series [1] (read-out: IC50) turned out to be 3.53 µM. For the same compound, the Activity in series [2] came out at 49.2%. For `COc1ccc(-c2nnc(-c3cc(OC(F)(F)F)ccc3N3CCCCC3)o2)cc1OC`, in that order: 5.86 µM and 65.4%. Regarding `COc1ccc(-c2coc(-c3cc(OC(F)(F)F)ccc3-n3cncn3)n2)cc1OC`, in series [1] (read-out: IC50), the IC50 stood at 7.63 µM. The Activity in series [2] amounted to 21.1%. Regarding `COc1ccc(-c2ccc3nnc(-c4cc(OC(F)(F)F)ccc4-n4cncn4)n3n2)cc1OC`, the IC50 entry in series [1] is “Not Active”.

On to `COc1ccc(-c2ccn3c(-c4cc(OC(F)(F)F)ccc4-n4cncn4)nnc3c2)cc1OC`, for which, in series [1], the concentration for half-maximal inhibition (IC50) result is recorded as “Not Active”.

Consider `COc1ccc(-c2nnc(-c3cc(OC(F)(F)F)ccc3-n3cncn3)o2)cn1`, for which the IC50 in series [1] (read-out: IC50) was above 30 µM. Take `COc1ccc(-c2nnc(-c3cc(OC(F)(F)F)ccc3-c3cn[nH]c3)o2)cc1OC`: the IC50 in series [1] (read-out: IC50) stood at 2.24 µM. In series [2], the Activity came to 10.3%. Take `COc1ccc(-c2nnc(-c3cc(OC(F)(F)F)ccc3-c3cccnc3)o2)cc1OC`: the IC50 in series [1] (read-out: IC50) is above 30 µM. In the case of `COc1ccc(-c2nnnn2-c2cc(OC(F)(F)F)ccc2-n2cncn2)cc1OC`, in [1], the IC50 entry is recorded as “Not Active”. Take `COc1ccc(-c2c[nH]c(-c3cc(OC(F)(F)F)ccc3-n3cncn3)n2)cc1OC`: the IC50 in series [1] (read-out: IC50) is at least 10 µM. Moreover, the Activity in series [2] stood at 34.2%. The like results for `COc1ccc(-c2nnc(-c3cc(OC(F)(F)F)ccc3N3CCOCC3)o2)cc1OC` were, in that order, 1.18 µM and 23.1%. Take `COc1cc(-c2nnc(-c3cc(OC(F)(F)F)ccc3-n3cncn3)o2)ccc1OC1CCC1`: the IC50 in series [1] (read-out: IC50) was 1.55 µM. Moreover, the Activity in [2] was 10.4%. For `COc1ccc(-c2nnc(-c3cc(OC(F)(F)F)ccc3-n3cncn3)o2)cc1OC`, in that order: 1.58 µM and 7.1%. Turning to `COc1ccc(-c2nnc(-c3cc(OC(F)(F)F)ccc3N3CCN(C)CC3)o2)cc1OC`, the concentration for half-maximal inhibition (IC50) in series [1] (read-out: IC50) was above 30 µM.

For the compound `COc1ccc(-c2nc(-c3cc(OC(F)(F)F)ccc3-n3cncn3)no2)cc1OC`, the IC50 in series [1] (read-out: IC50) was 2.39 µM. Moreover, in series [2], the Activity was determined as 8.4%. As for `COc1ccc(-c2cn(-c3cc(OC(F)(F)F)ccc3-n3cncn3)nn2)cc1OC`, the IC50 in series [1] (read-out: IC50) was at least 10 µM. In addition, the Activity in [2] was found to be 32.4%. In the case of `FC(F)(F)Oc1ccc(-n2cncn2)c(-c2nnc(-c3ccc4c(c3)OCO4)o2)c1`, the IC50 in series [1] (read-out: IC50) was above 30 µM. On the same count and under the same terms, the result for `FC(F)(F)Oc1ccc(-n2cncn2)c(-c2nnc(-c3ccc4c(c3)OC(F)(F)O4)o2)c1` reads above 30 µM.

As for `COc1ccc(-c2nn3cc(-c4cc(OC(F)(F)F)ccc4-n4cncn4)nc3s2)cc1OC`, the IC50 entry in series [1] was “Not Active”.

For the compound `COc1ccc(-c2nnc(-c3cc(OC(F)(F)F)ccc3-c3cnn(C)c3)o2)cc1OC`, the IC50 in [1] (read-out: IC50) was above 30 µM. Turning to `COc1cc(-c2nnc(-c3cc(OC(F)(F)F)ccc3-n3cncn3)o2)ccn1`, the IC50 in series [1] (read-out: IC50) was at least 10 µM. Moreover, in series [2], the Activity stood at 68.9%.

In the case of `COc1cc(-c2nnc(-c3cc(OC(F)(F)F)ccc3-n3cncn3)o2)cnc1OC`, the IC50 in series [1] (read-out: IC50) is 4.38 µM. Moreover, the Activity in series [2] was determined as 13.5%. The like results for `COc1ccc(-c2noc(-c3cc(OC(F)(F)F)ccc3-n3cncn3)n2)cc1OC` were, in that order, 1.32 µM and 14.5%. In the case of `FC(F)(F)Oc1ccc(-n2cncn2)c(-c2nnc(-c3ccc4c(c3)OCCO4)o2)c1`, the IC50 in series [1] (read-out: IC50) is above 30 µM. `COc1ccc(-c2nnc(-c3cc(OC(F)(F)F)ccc3-c3ccncc3)o2)cc1OC`: the IC50 in series [1] (read-out: IC50) is at least 10 µM. Besides, in series [2], the Activity was found to be 27.9%. In the case of `COc1ccc(-c2nnc(-c3cc(OC(F)(F)F)ccc3N3CCCC3)o2)cc1OC`, the IC50 in [1] (read-out: IC50) is above 30 µM. With `COc1cc(-c2nnc(-c3cc(OC(F)(F)F)ccc3-n3cncn3)o2)ccc1F`, in [1] (read-out: IC50), the IC50 is above 30 µM. For `COc1ccc(-c2cnc(-c3cc(OC(F)(F)F)ccc3-n3cncn3)o2)cc1OC`, the IC50 in [1] (read-out: IC50) was 2.08 µM. Besides, in series [2], the Activity was found to be 36.5%.

With `COc1cc(-c2nnc(-c3cc(OC(F)(F)F)ccc3-n3cncn3)o2)cc(F)c1OC`, in series [1] (read-out: IC50), the IC50 was above 30 µM. On to `COc1cc(F)c(-c2nnc(-c3cc(OC(F)(F)F)ccc3-n3cncn3)o2)cc1OC`, for which, in [1] (read-out: IC50), the IC50 is at least 10 µM. Besides, the Activity in [2] was found to be 72.8%. For `COc1ccc(-c2nnc(-c3cc(OC(F)(F)F)ccc3-c3ccnnc3)o2)cc1OC`, in that order: at least 10 µM and 27.6%. On to `COc1ccc(-c2nsc(-c3cc(OC(F)(F)F)ccc3-n3cncn3)n2)cc1OC`, for which, in series [1] (read-out: IC50), the IC50 is at least 10 µM. Also, the Activity in series [2] stood at 41.5%. As a reminder, the fraction unbound is free concentration divided by total concentration. As a reminder, the Kp is tissue or fluid exposure divided by exposure in the circulation. Turning to `COc1cc(-c2nnc(-c3cc(OC(F)(F)F)ccc3-n3cncn3)o2)ccc1OCC1CC1`, the fraction unbound at 4 h, 5 µM in series [3] amounted to 0.038. For the same compound, the Kp in series [4] came out at 2. Further, the IC50 in series [1] (read-out: IC50) was 1.31 µM. For the same compound, the Kp uu in [5] worked out at 0.43. In addition, the Activity in [2] worked out at 13.2%. With `COc1ccc(-c2nnc(-c3cc(OC(F)(F)F)ccc3-c3ccnn3C)o2)cc1OC`, in series [2], the Activity amounted to 20.6%. In the case of `COc1ccc(-c2nnc3sc(-c4cc(OC(F)(F)F)ccc4-n4cncn4)nn23)cc1OC`, the IC50 entry in series [1] is recorded as “Not Active”. Regarding `COc1ccc(-c2nnc(-c3cc(OC(F)(F)F)ccc3-n3cncn3)o2)c(F)c1F`, the IC50 in [1] (read-out: IC50) is above 30 µM. The same measure, in the same setting: the result for `COc1ccc(-c2nnc(-c3cc(OC(F)(F)F)ccc3-n3cncn3)o2)cc1F` reads above 30 µM.

With `COc1ccc(-c2nnc(-c3cc(OC(F)(F)F)ccc3-n3ccnc3)o2)cc1OC`, the “Drug uptake(free)” value in series [6] was found to be 6 nM. Also, the IC50 in series [7] was above 10 µM; in series [8], above 10 µM; in series [9], above 10 µM; in series [11], above 10 µM; in [1] (read-out: IC50) it was 0.57 µM; in series [13], above 10 µM. The IC50 in [14] and in series [15] was above 10 µM in each case. In [3] (4 h, 5 µM), the Fu was 0.1. Moreover, in series [10], the fraction unbound at 6 h, 5 µM was found to be 0.013. In addition, the concentration at 0.25 h in [12] turned out to be 456 nM. The Kp in series [4] was 4.9. Further, the Kp uu in series [5] is 0.65. For the same compound, the Activity in series [2] came out at 6.3%.
